Reference: the METLIN SMRT retention time set (Domingo-Almenara et al. 2019)

Experiment: gradient 5% acetonitrile 3 min, to 50% in 2 min, to 85% in 15 min, held 3 min, 100 µL/min
Settings: column: Zorbax Extend-C18 2.1 x 50 mm; eluents: water / acetonitrile, 0.1% formic acid
Procedure, shortened: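 Data were gathered over 3 months by HPLC coupled to a quadrupole time-of-flight mass spectrometer, operated in positive and negative ionization mode. Mixtures of ~100 pure standards ran on a Zorbax Extend-C18 column (2.1 × 50 mm, 1.8 μm) at 100 μL/min, with water and acetonitrile each containing 0.1% formic acid and dead and dwell volumes of 40 μL and 900 μL. Retention time was read from adduct peaks picked by computer and checked manually.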

Compound | RP-LC retention time
Cc1oc(-c2ccccc2)nc1Cc1noc(-c2ccccc2F)n1 | 675 s
Cc1nn(-c2ccc(C(=O)NCCCN3CCCC3=O)cc2)c2c1C(=O)CC(C)(C)C2 | 670 s
CN(C)CCOc1ccc(I)cc1Cc1ccccc1 | 739 s
Cc1ccccc1Oc1nccnc1N1CCCC(C(=O)NCc2cccc(Br)c2)C1 (centres undefined) | 1290 s
CCOC(=O)C1CCN(c2ncccc2-c2nnc(-c3ccc(Cl)cc3)o2)CC1 | 1240 s
Cc1ccc(Cl)cc1N1C(=O)CN(S(C)(=O)=O)CC1(C)C(=O)NCc1ccccc1 (centres undefined) | 854 s
COC(=O)C(C)NC(=O)NCc1cccn1Cc1cc(C)ccc1C (centres undefined) | 885 s
O=C1NCCCn2cc(S(=O)(=O)Nc3ccc(C(F)(F)F)cc3)cc21 | 728 s
COc1ccccc1-c1nnc(-c2ccc(OC)c(S(=O)(=O)N(C)C)c2)o1 | 798 s
CCC1Oc2ccc(S(=O)(=O)N3CCC(C(=O)NC4CC4)CC3)cc2NC1=O (centres undefined) | 688 s
Cc1cc(Br)ccc1NC(=O)Cn1cnc(C)c(C)c1=O | 673 s
CNC(=O)[C@@H]1CN(S(=O)(=O)C(C)C)C[C@H]1c1n[nH]c(C)n1 | 570 s
CCOc1cccc(-c2noc(Cn3ncn4nc(-c5ccc(Br)cc5)cc4c3=O)n2)c1 | 1310 s
Cc1cc(C)cc(NC(=O)C2CC(=O)N(c3ccc4oc(C)nc4c3)C2)c1 (centres undefined) | 801 s
COCCN1C(=O)c2cccn2CC1CNC(=O)Nc1ccc2c(c1)OCCO2 (centres undefined) | 663 s
COc1cccc(S(=O)(=O)N2CCN(c3cc(C)nc(NC4CCCCC4)n3)CC2)c1 | 795 s
CCCN1C(=O)c2cc(S(=O)(=O)Nc3ccc(F)c(C)c3)ccc2Oc2cccnc21 | 1100 s
CC(C)Cc1csc(-c2csc(S(=O)(=O)NCc3ccccc3F)c2)n1 | 1140 s
COCCN1C(=O)c2ccccc2C(C(=O)NCCCN2C(C)CCCC2C)C1c1cccs1 (centres undefined) | 633 s
O=C(O)CCC(=O)Nc1cccc(C(F)(F)F)c1 | 674 s
COc1ccc(CNC(=O)c2cn3cc(Cl)ccc3n2)cc1OC | 749 s
CCOC(=O)C1CCN(C(=O)c2cc(-c3ccc(C)c(C)c3)[nH]c2C)CC1 | 973 s
Cc1ccccc1NC(=O)Cn1nc2c(N(C)C3CCCCC3)nccn2c1=O | 745 s

Compound | RP-LC retention time
COc1cccc(C(=O)Nc2cc(-c3ccccn3)no2)c1 | 788 s
O=C(O)c1ccc(N2CCCC2)c(NC(=O)c2cccs2)c1 | 710 s
COc1ccccc1-c1nnc(C2CCN(S(=O)(=O)c3c(C)cc(C)cc3C)CC2)o1 | 1030 s
Cn1nc(C(=O)N2CCCCC2)c2c1CCN(C(=O)CCC(=O)NC1CCCC1)C2 | 666 s
CCOC(=O)Cc1csc(NC(=O)CNC(=O)c2c[nH]c3ccccc23)n1 | 670 s
CCOC(=O)CN1C(=O)CC(C[C@@H](O)C2C[C@@H](C)C[C@H](C)C2=O)CC1=O (some centres undefined) | 821 s
CCc1nc(-c2ccc(-c3noc(CNC(=O)c4ccc(C)cc4)n3)cc2)cs1 | 1040 s
O=C(Nc1nc2c(s1)CCc1ccccc1-2)Nc1c(F)cccc1F | 914 s
O=C(Nc1ccc(-c2nnc3n2CCCC3)cc1)c1ccco1 | 609 s
COc1ccc(Br)c(C(=O)N2CCc3[nH]cnc3C23CCCC3)c1 | 648 s
CCn1ccc(C(=O)Nc2cc(Cl)ccc2Cl)n1 | 1140 s
COCCN1C(=O)CCc2cc(NS(=O)(=O)c3ccc(F)cc3F)ccc21 | 723 s
Cc1cc(C(=O)N2CCOCC2)n(CC(=O)NCc2ccco2)n1 | 576 s
CCc1csc(-c2ccc(N3CCN(C(=O)C4COc5ccccc5O4)CC3)nc2)n1 (centres undefined) | 1030 s
Nc1cc(C2CCN(C(=O)Nc3ccc(Br)cc3F)CC2)no1 | 736 s
CCOc1ccc2nc(N3CCCC(C(=O)NCCCN4CCOCC4)C3)sc2c1 (centres undefined) | 632 s
O=C(CN1C(=O)CCC1=O)Nc1nnc(-c2ccc(C(F)(F)F)cc2)o1 | 674 s
CCN(CC)C(=O)Cn1nc2c(SCc3ccc(Cl)cc3)nccn2c1=O | 930 s
Cc1ccc(S(=O)(=O)N2CCC(n3cnnc3C)CC2)cc1C | 704 s
CCN1CCN(C(=O)CC2CCN(C(=O)c3[nH]c(C)c(C(=O)OC(C)C)c3C)CC2)CC1 | 612 s
Cc1ccn2c(NC(=O)COc3ccc(Cl)cc3Cl)c(-c3ccccc3)nc2c1 | 799 s
Cc1cc(=O)n(CC(=O)Nc2ccc(F)cc2)c(N2CCN(c3ccccc3)CC2)n1 | 828 s
CC1CCCN(c2ccn3c(=O)n(CC(=O)Nc4cc(F)cc(F)c4)nc3n2)C1 (centres undefined) | 849 s

Compound | RP-LC retention time
CCCCNC(=O)Cn1nc2c3cc(-c4ccccc4)nn3ccn2c1=O | 807 s
Cc1ccc(CN2CCC(CNC(=O)c3c(C)oc4c3C3=NCCN3C=N4)C2)cc1 (centres undefined) | 597 s
O=c1c2nc(-c3ccc(F)cc3)cn2ccn1-c1ccc2c(c1)CCC2 | 945 s
Cc1ccc(-c2nc(N3CCCCCC3)c3ccccc3n2)cc1 | 833 s
O=C(c1nc2nc(-c3ccco3)cc(C(F)(F)F)n2n1)N1CCN(c2ccccn2)CC1 | 630 s
Cc1cccc(-c2nnc(C)c(N3CCN(c4ccccn4)CC3)n2)c1 | 589 s
CCOc1ccc(C(=O)N2CCCC2c2nc(-c3ccc(OC)c(OC)c3)no2)cc1 (centres undefined) | 927 s
CSc1ccc(-c2noc(Cn3c(=O)n(-c4ccc(Cl)cc4)c(=O)c4sccc43)n2)cc1 | 1100 s
CC(CCNC(=O)c1cc2c(-c3cccs3)nn(-c3ccccc3)c2n1C)N1CCCC1 (centres undefined) | 726 s
Cc1ccc(CN(CC(=O)N2CCNCC2)C(=O)c2sccc2C)cc1C | 669 s
CCn1nc(C)cc1C(=O)N(Cc1ccccn1)c1nc2c(OC)ccc(OC)c2s1 | 883 s
COc1ccc(NC(=O)Cn2ccnc2-c2ccnc(N3CCOCC3)c2)cc1OC | 578 s
O=C(Nc1cc(-c2cccc(Cl)c2)no1)C1CCCN(c2ncnc3c2nc2n3CCCCC2)C1 (centres undefined) | 1080 s
COc1ccc2c(c1)-c1nc(NC(=O)c3ccccc3Cl)sc1CC2 | 1110 s
CC(NS(=O)(=O)c1cccc(Cl)c1)C(=O)Nc1ccc(Br)cc1F (centres undefined) | 912 s
COc1cccc(Nc2nc(C)c(C(=O)Nc3ccc(F)cc3F)s2)c1 | 955 s
CCN1c2ccc(C)cc2C(=O)NC12CCN(C(=O)c1cc(C)cc(C)c1)CC2 | 912 s
CC(C)Cn1cc(C(=O)O)c(S(=O)(=O)N2CCN(C(C)C)CC2)n1 | 609 s
CC(C)N1CCn2c(nc3cc(C(=O)NCc4ccccc4Cl)ccc32)C1=O | 719 s
Cc1ccc(-c2nnc(Cc3nc(-c4ccccc4F)no3)o2)cc1F | 1100 s
CCn1c(=O)c(C(=O)NC(C)C)nc2cc(C)c(C)cc21 | 803 s
CCOC(=O)c1ccc(NC(=O)C2CCCN2S(=O)(=O)c2cc(C(=O)OC)n(C)c2)cc1 (centres undefined) | 900 s
Cc1ccc(C)c(NC(=O)CSc2nncn2C)c1 | 618 s

Compound | RP-LC retention time
CCNC(=O)CC1=C2CCCCC2N(C(C)C)C1=O (centres undefined) | 671 s
O=C(C1CCN(S(=O)(=O)c2ccc3[nH]c(=O)ccc3c2)CC1)N1CCOCC1 | 613 s
CC1(C(=O)Nc2ccc(F)c(F)c2)CCCCC(=O)N1 (centres undefined) | 715 s
O=C(NCC1CCCO1)C(=O)NCC(c1ccc2c(c1)OCO2)N1CCOCC1 (centres undefined) | 583 s
COc1ccc(N2CCN(c3cc(SCC(=O)NCc4ccc(F)cc4)ncn3)CC2)cc1 | 830 s
COc1ccc(NC(=O)Cn2ncc3c(c2=O)N(CC2CC2)C(=O)CS3)cc1Cl | 808 s
CC1(C(=O)NCc2ccccc2)CCCN(C(=O)Nc2ccccc2Br)C1 (centres undefined) | 947 s
CCc1ccccc1N1C(=O)CN(S(=O)(=O)CC)CC1(C)C(=O)NCc1ccccc1 (centres undefined) | 860 s
O=C(c1ccc2cc[nH]c2c1)N1CCC(c2nc(-c3ccccc3)no2)C1 (centres undefined) | 866 s
O=C(Nc1ccccc1F)C1CCc2nc(N3CCCCC3)ncc2C1 (centres undefined) | 772 s
Cc1cc(C)n(Cc2c(C(=O)NCC34CCC=C3N(C)C(=O)CC4)noc2C)n1 (centres undefined) | 749 s
Cn1nc(-c2nc(-c3ccc(F)cc3)no2)c2c1CCN(C(=O)NC(C)(C)C)C2 | 966 s
Cc1cc(NC(=O)CSc2ccc3nnc(-c4cccs4)n3n2)no1 | 620 s
CCC1Oc2ccc(S(=O)(=O)N3CCC(C(=O)N(C)c4ccc(C)cc4)CC3)cc2NC1=O (centres undefined) | 837 s
CCOC(=O)c1ccc(NC(=O)NCC(c2cccnc2)c2c[nH]c3ccccc23)cc1 (centres undefined) | 814 s
Cc1ccc(-c2cc(C(=O)N3CCN(C)CC3)n(C)c2)cc1 | 644 s
CCCCN1CCC(CCC(=O)c2cc(Cl)c(N)cc2OC)CC1 | 726 s
Cn1c(=O)n(C)c2cc(CNc3ccc(C(=O)O)c(Cl)c3)ccc21 | 697 s
COc1ccc2cc(C(=O)N3CCC(C(C)C(=O)NCCc4c[nH]c5ccccc45)CC3)[nH]c2c1 (centres undefined) | 818 s
Cc1nc(CSc2nnc3ccc(-c4cccnc4)nn23)cs1 | 577 s
